Test results from US20140235840A1, “NEW SYNTHESIS OF FUCOSE” (GLYCOM A/S, priority 2011, published 2014).

Tests used:
[1] = Partition studies between organic solvent and water; assay type: physicochemical; conditions: for Number of volumes of organic solvent: to reach at least 95% of recovery using one volume of organic solvent each time relative to one volume of aqueous solution; for solubility in organic solvents: as compared to aqueous solvents; for amount of compound from aqueous phase / amount of compound from organic phase: 197 mg (cyclohexylidene) or 150 mg (isopropylidene) partitioned
Procedure: 1,2-O-Cyclohexylidene-6-deoxy-β-L-talofuranose (197 mg) was partitioned between water (10 mL) and methylene chloride (10 mL), layers separated and the residual amount of solutions in the separatory funnel were partitioned with extra amount of water (5 mL) and methylene chloride (5 mL). The combined organic phases were evaporated and dried in vacuo (50° C., <1 mbar, 1 hour) to give 140 mg of the title compound. The aqueous solution gave 53 mg after lyophilisation and drying in vacuo (50° C., <1 mbar, 2 hrs). Using the same procedure, partition between ethyl acetate and water provided 127 mg of the title compound from ethyl acetate phase and 70 mg from the aqueous phase.
Analogously, 1,2-O-isopropylidene-6-deoxy-β-L-talofuranose (150 mg) was partitioned between methylene chloride (24 mg) and aqueous phase (126 mg). Partition between ethyl acetate and water furnished 7 mg and 143 mg of the title compound, respectively.

[2] = shake-flask partition; gravimetric recovery from each phase; conditions: not told
[3] = conclusion in words from partition results
[4] = solvent system ethyl acetate-water

Row | SMILES | Number of volumes of organic solvent ([1]; CH2Cl2-water) | affinity to organic solvents versus aqueous media [1, 3] | solubility in aqueous solutions [1, 3] | solubility in organic solvents [1, 3] | amount of compound from aqueous phase ([1]; ethyl acetate-water) [mg] | amount of compound from organic phase ([1]; ethyl acetate-water) [mg] | Number of volumes of organic solvent ([1]; ethyl acetate-water) | amount of compound from aqueous phase ([1]; methylene chloride-water) [mg] | amount of compound from organic phase ([1]; methylene chloride-water) [mg] | Partition P (=[C]org/[C]aq) ([1]; solvent system CH2Cl2-water) | Partition P (=[C]org/[C]aq) [1, 4] | log partition ethyl acetate / water [2] | log partition methylene chloride (CH2Cl2) / water [2] | logP ([1]; solvent system CH2Cl2-water) | logP [1, 4]
1 | C[C@H](O)[C@H]1O[C@@H]2OC(C)(C)O[C@@H]2[C@@H]1O [1,2-O-isopropylidene-6-deoxy-β-L-talofuranose] | 18 | higher affinity to aqueous medium | highly soluble | almost insoluble | 143 | 7 | 21 | 126 | 24 | 0.19 | 0.16 | 0.16 concentration ratio (mass-based) | 0.19 concentration ratio (mass-based) | – | –
2 | C[C@H](O)[C@H]1O[C@@H]2OC3(CCCCC3)O[C@@H]2[C@@H]1O [1,2-O-Cyclohexylidene-6-deoxy-β-L-talofuranose] | 3 | higher affinity to organic solvents as compared to aqueous media | – | much higher solubility | 70 | 127 | 3 | 53 | 140 | 2.64 | 1.81 | – | – | 0.42 | 0.26
